Data as given in patent publication US7435837B2, “Dihydrobenzofuranyl alkanamine derivatives and methods for using same” (Wyeth, priority 2003, dated 2008).
Structures can show the parent of a compound that is named as a salt.

Row | SMILES | melting point
1 | NCC1Cc2ccc(-c3ccccc3)cc2O1 (racemic) (as salt: hydrobromid) [Example 31, (±)-(6-phenyl-2,3-dihydro-1-benzofuran-2-yl)methanamine] | 218 to 221 °C
2 | NCC1Cc2cccc(CCc3ccccc3)c2O1 (racemic) (as salt: hydrochloride) [Example 120, (±)-1-[7-(2-phenylethyl)-2,3-dihydro-1-benzofuran-2-yl]methanamine] | 155 to 157 °C
3 | NCC1Cc2cc(Cl)cc(-c3ccsc3)c2O1 (racemic) (as salt: hydrochloride) [Example 90, (±)-(5-chloro-7-thien-3-yl-2,3-dihydro-1-benzofuran-2-yl)methylamine] | 230 °C (dec.)
4 | Cc1ccccc1-c1cccc2c1CC(CN)O2 (racemic) (as salt: hydrochloride) [Example 4, (±)-1-[4-(2-methylphenyl)-2,3-dihydro-1-benzofuran-2-yl]methanamine] | 231 to 234 °C
5 | NCC1Cc2cccc(-c3cccc(C(F)(F)F)c3)c2O1 (single isomer, unassigned; (-)) (as salt: hydrochloride) [Example 135, (−)-1-{7-[3-(trifluoromethyl)phenyl]-2,3-dihydro-1-benzofuran-2-yl}methanamine] | 184 to 186 °C
6 | NCC1Cc2cccc(-c3ccc4ccccc4c3)c2O1 (racemic) (as salt: hydrochloride) [Example 39, (±)-1-[7-(2-naphthyl)-2,3-dihydro-1-benzofuran-2-yl]methanamine] | 135 to 140 °C
7 | Cc1ccc(Cl)cc1-c1cc(F)cc2c1O[C@@H](CN)C2 (as salt: hydrochloride) [Example 548, {[(2R)-7-(5-chloro-2-methylphenyl)-5-fluoro-2,3-dihydro-1-benzofuran-2-yl]methyl}amine] | 148 to 150 °C
8 | CC(C)c1cccc2c1OC(CN)C2 (single isomer, unassigned; (-)) (as salt: hydrochloride) [Example 19, (−)-(7-isopropyl-2,3-dihydro-1-benzofuran-2-yl)methylamine] | 176 to 178 °C
9 | Cc1cccc(C)c1-c1cccc2c1CC(CN)O2 (racemic) (as salt: hydrochloride) [Example 125, (±)-1-[4-(2,6-dimethylphenyl)-2,3-dihydro-1-benzofuran-2-yl]methanamine] | 254 to 256 °C
10 | NCC1Cc2c(C(F)(F)F)ccc(Cl)c2O1 (racemic) (as salt: hydrochloride) [Example 14, (±)-[7-chloro-4-(trifluoromethyl)-2,3-dihydro-1-benzofuran-2-yl]methanamine] | > 250 °C
11 | COc1cccc2c1OC(CN)C2 (racemic) (as salt: hydrochloride) [Example 7, (±)-1-(7-methoxy-2,3-dihydro-1-benzofuran-2-yl)methanamine] | 168 to 171 °C
12 | COc1ccccc1-c1cccc2c1OC(CN)C2 (single isomer, unassigned; (+)) (as salt: hydrochloride) [Example 128, (+)-1-[7-(2-methoxyphenyl)-2,3-dihydro-1-benzofuran-2-yl]methanamine] | 180 to 184 °C
13 | NCC1Cc2cccc(-c3cccc4ccccc34)c2O1 (racemic) (as salt: hydrochloride) [Example 33, (±)-1-[7-(1-naphthyl)-2,3-dihydro-1-benzofuran-2-yl]methanamine] | 120 to 124 °C
14 | NCC1Cc2cccc(C3CCCC3)c2O1 (single isomer, unassigned; (-)) (as salt: hydrobromid) [Example 9, (−)-(7-cyclopentyl-2,3-dihydro-1-benzofuran-2-yl)methylamine] | 208 to 211 °C
15 | CC1(CN)Cc2cc(Cl)cc(-c3ccccc3)c2O1 (racemic) (as salt: hydrochloride) [Example 112, (±)-1-(5-chloro-2-methyl-7-phenyl-2,3-dihydro-1-benzofuran-2-yl)methanamine] | 222 to 225 °C
16 | NCC1Cc2cc(F)cc(-c3ccccc3F)c2O1 (racemic) (as salt: hydrochloride) [Example 107, (±)-1-[5-fluoro-7-(2-fluorophenyl)-2,3-dihydro-1-benzofuran-2-yl]methanamine] | 240 to 247 °C (dec.)
17 | NCC1Cc2cc(Cl)cc(C3CCCCC3)c2O1 (racemic) (as salt: hydrochloride) [Example 11, (±)-(5-chloro-7-cyclohexyl-2,3-dihydro-1-benzofuran-2-yl)methylamine] | 210 to 213 °C
18 | COc1cc(Cl)cc2c1OC(CN)C2 (racemic) (as salt: hydrochloride) [Example 111, (±)-1-(5-chloro-7-methoxy-2,3-dihydro-1-benzofuran-2-yl)methanamine] | 195 to 198 °C
19 | NCC1Cc2c(cccc2-c2ccccc2C(F)(F)F)O1 (racemic) (as salt: hydrochloride) [Example 122, (±)-1-{4-[2-(trifluoromethyl)phenyl]-2,3-dihydro-1-benzofuran-2-yl}methanamine] | 213 to 215 °C
20 | NCC1Cc2cc(F)cc(-c3ccccc3)c2O1 (racemic) (as salt: hydrochloride) [Example 103, (±)-1-(5-fluoro-7-phenyl-2,3-dihydro-1-benzofuran-2-yl)methanamine] | 255 to 260 °C
21 | NCC1Cc2cccc(-c3ccccc3)c2O1 (single isomer, unassigned; (-)) (as salt: hydrochloride) [Example 38, (−)-1-(7-phenyl-2,3-dihydro-1-benzofuran-2-yl)methanamine] | 220 to 222 °C
22 | COc1ccc(-c2cccc3c2OC(CN)C3)cc1 (racemic) (as salt: hydrochloride) [Example 79, (±)-1-[7-(4-methoxyphenyl)-2,3-dihydro-1-benzofuran-2-yl]methanamine] | 176 to 178 °C
23 | CC(C)(C)c1cc(Cl)cc2c1OC(CN)C2 (racemic) (as salt: hydrochloride) [Example 27, (±)-1-(7-tert-butyl-5-chloro-2,3-dihydro-1-benzofuran-2-yl)methanamine] | 229 to 231 °C
24 | CC1(CN)Cc2cc(Cl)cc(-c3ccsc3)c2O1 (racemic) (as salt: hydrochloride) [Example 113, (±)-(5-chloro-2-methyl-7-thien-3-yl-2,3-dihydro-1-benzofuran-2-yl)methylamine] | 295 to 298 °C (dec.)
25 | COc1ccc(-c2cccc3c2OC(CN)C3)cc1 (single isomer, unassigned; (-)) (as salt: hydrobromid) [Example 81, (−)-1-[7-(4-methoxyphenyl)-2,3-dihydro-1-benzofuran-2-yl]methanamine] | 185 to 188 °C

Continued, values first:

Row | melting point | SMILES
26 | > 225 °C | Cc1cccc(-c2cccc3c2OC(CN)C3)c1C (racemic) (as salt: hydrochloride) [Example 154, (±)-1-[7-(2,3-dimethylphenyl)-2,3-dihydro-1-benzofuran-2-yl]methanamine]
27 | 152 to 154 °C | COc1cccc(-c2cccc3c2OC(CN)C3)c1 (racemic) (as salt: hydrochloride) [Example 68, (±)-1-[7-(3-methoxyphenyl)-2,3-dihydro-1-benzofuran-2-yl]methanamine]
28 | > 210 °C | NCC1Cc2cccc(-c3ccc(F)c(Cl)c3)c2O1 (racemic) (as salt: hydrochloride) [Example 34, (±)-1-[7-(3-chloro-4-fluorophenyl)-2,3-dihydro-1-benzofuran-2-yl]methanamine]
29 | > 200 °C | Cc1ccccc1-c1cccc2c1OC(CN)C2 (racemic) (as salt: hydrochloride) [Example 47, (±)-1-[7-(2-methylphenyl)-2,3-dihydro-1-benzofuran-2-yl]methanamine]
30 | 244 to 247 °C | Cc1cccc(C)c1-c1cccc2c1OC(CN)C2 (single isomer, unassigned; (-)) (as salt: hydrochloride) [Example 57, (−)-1-[7-(2,6-dimethylphenyl)-2,3-dihydro-1-benzofuran-2-yl]methanamine]
31 | 233 to 235 °C | NCC1Cc2cccc(-c3ccc(Cl)cc3)c2O1 (single isomer, unassigned; (-)) (as salt: hydrobromid) [Example 78, (−)-1-[7-(4-chlorophenyl)-2,3-dihydro-1-benzofuran-2-yl]methanamine]
32 | 186 to 188 °C | NCC1Cc2cccc(-c3ccccc3Cl)c2O1 (single isomer, unassigned; (-)) (as salt: hydrochloride) [Example 129, (−)-1-[7-(2-chlorophenyl)-2,3-dihydro-1-benzofuran-2-yl]methanamine]
33 | 189 to 190 °C | NCC1Cc2cccc(-c3cccc(Cl)c3)c2O1 (single isomer, unassigned; (-)) (as salt: hydrobromid) [Example 67, (−)-1-[7-(3-chlorophenyl)-2,3-dihydro-1-benzofuran-2-yl]methanamine]
34 | 221 to 223 °C | NCC1Cc2ccc(Cl)c(-c3ccccc3Cl)c2O1 (racemic) (as salt: hydrochloride) [Example 400, (±)-{[6-chloro-7-(2-chlorophenyl)-2,3-dihydro-1-benzofuran-2-yl]methyl}amine]
35 | 206 to 208 °C | NCC1Cc2cccc(-c3c(Cl)cccc3Cl)c2O1 (racemic) (as salt: hydrochloride) [Example 140, (±)-1-[7-(2,6-dichlorophenyl)-2,3-dihydro-1-benzofuran-2-yl]methanamine]
36 | 212 to 213 °C | NCCC1Cc2cc(F)cc(-c3c(Cl)cccc3Cl)c2O1 (racemic) (as salt: hydrochloride) [Example 553, (±)-{2-[7-(2,6-dichlorophenyl)-5-fluoro-2,3-dihydro-1-benzofuran-2-yl]ethyl}amine]
37 | 219 to 222 °C | NCC1Cc2cccc(-c3c(F)cccc3F)c2O1 (racemic) (as salt: hydrochloride) [Example 139, (±)-1-[7-(2,6-difluorophenyl)-2,3-dihydro-1-benzofuran-2-yl]methanamine]
38 | 150 to 154 °C | NCC1Cc2cccc(-c3cccc(Cl)c3)c2O1 (racemic) (as salt: hydrochloride) [Example 65, (±)-1-[7-(3-chlorophenyl)-2,3-dihydro-1-benzofuran-2-yl]methanamine]
